The test system of one series is Venturia inaequalis. Kind of series: Venturia test (apple)/protective. The following applies: apple plants, protective spray, application rate 100 g/ha, evaluation 12 days after inoculation. Format: in vivo. The protocol: To produce a suitable preparation of active compound, 1 part by weight of active compound is mixed with the stated amounts of solvent and emulsifier, and the concentrate is diluted with water to the desired concentration.
To test for protective activity, young plants are sprayed with the preparation of active compound at the stated application rate. After the spray coating has dried on, the plants are inoculated with an aqueous conidia suspension of the causative organism of apple scab Venturia inaequalis and then remain in an incubation cabin at 20° C. and 100% relative atmospheric humidity for 1 day.
The plants are then placed in a greenhouse at about 21° C. and a relative atmospheric humidity of about 90%.
Evaluation is carried out 12 days after the inoculation. 0% means an efficacy which corresponds to that of the control, whereas an efficacy of 100% means that no infection is observed.

In another series the test system is Pyrenophora teres. The experiment in a line: Pyrenophora teres test (barley)/protective. Format: in vivo. The following applies: barley plants, protective spray, application rate 250 g/ha, evaluation 7 days after inoculation. The method, then: [table] To produce a suitable preparation of active compound, 1 part by weight of active compound is mixed with the stated amounts of solvent and emulsifier, and the concentrate is diluted with water to the desired concentration. To test for protective activity, young plants are sprayed with the preparation of active compound at the stated application rate. After the spray coating has dried on, the plants are sprayed with a conidia suspension of Pyrenophora teres. The plants remain in an incubation cabin at 20° C. and 100% relative atmospheric humidity for 48 hours. The plants are then placed in a greenhouse at a temperature of about 20° C. and a relative atmospheric humidity of about 80%. Evaluation is carried out 7 days after the inoculation. 0% means an efficacy which corresponds to that of the control, whereas an efficacy of 100% means that no infection is observed.

The subject of the next series is Sphaerotheca fuliginea. Kind of series: Sphaerotheca test (cucumber)/protective. Format: in vivo. The following applies: cucumber plants, protective spray, application rate 100 g/ha, evaluation 10 days after inoculation. The protocol:
(§1) [table] To produce a suitable preparation of active compound, 1 part by weight of active compound is mixed with the stated amounts of solvent and emulsifier, and the concentrate is diluted with water to the desired concentration. To test for protective activity, young plants are sprayed with the preparation of active compound at the stated application rate. Afier the spray coating has dried on, the plants are inoculated with an aqueous spore suspension of Sphaerotheca fuliginea. The plants are then placed at about 23° C. and a relative atmospheric humidity of about 70% in a greenhouse. Evaluation is carried out 10 days after the inoculation. 0% means an efficacy which corresponds to that of the control, whereas an efficacy of 100% means that no infection is observed.

The next series concerns Podosphaera leucotricha. The experiment in a line: Podosphaera test (apple)/protective. The series is classed as in vivo. The following applies: apple plants, protective spray, application rate 100 g/ha, evaluation 10 days after inoculation. The method, then:
as §1, with “After” for “Afier”, “the causative organism of apple mildew Podosphaera leucotricha.” for “Sphaerotheca fuliginea.”, “placed in a greenhouse” for “placed”, “70%.” for “70% in a greenhouse.”

The subject of series [1] is Erysiphe graminis f. sp. hordei. Kind of series: Erysiphe test (barley)/protective. The series is classed as in vivo. Particulars: barley plants, protective spray, application rate 750 g/ha, evaluation 7 days after inoculation. The protocol:
Erysiphe test (barley)/protective [table] To produce a suitable preparation of active compound, 1 part by weight of active compound is mixed with the stated amounts of solvent and emulsifier, and the concentrate is diluted with water to the desired concentration. To test for protective activity, young cereal plants are sprayed with the preparation of active compound at the stated application rate. 1 day after the treatment, the plants are inoculated with spores of Erysiphe graminis f. sp. hordei. The plants are then placed in a greenhouse at 70% relative atmospheric humidity and a temperature of 18° C. Evaluation is carried out 7 days after the inoculation. 0% means an efficacy which corresponds to that of the control, whereas an efficacy of 100% means that no infection is observed.

Regarding `Cc1nn(C)c(F)c1C(=O)Nc1ccccc1-c1ccc(Br)cc1` [Example 1, N-[2-(4-bromophcnyl)]-1,3-dimethyl-5-fluoro-pyrazole-4-carboxanilide], the melting point was 127 °C. For the same molecule, in the series on Venturia inaequalis, the Efficacy in % is on record as 100%. The Efficacy in % with Pyrenophora teres is listed as 100%. This molecule also showed an Efficacy in % in the series with Sphaerotheca fuliginea of 95%. The same molecule showed an Efficacy in % in the series with Podosphaera leucotricha of 100%. Moreover, the Efficacy in % in series [1] is 100%.

Molecule `Cc1ccccc1-c1ccccc1NC(=O)c1c(C)nn(C)c1F` [Example 2] showed a melting point of 100 °C. The same molecule returned an Efficacy in % in the series with Podosphaera leucotricha of 96%. Also, the Efficacy in % in series [1] is given as 90%.

For `Cc1nn(C)c(F)c1C(=O)Nc1ccccc1-c1ccccc1C(F)(F)F` [Example 4], the melting point was determined as 103 °C. Also, the Efficacy in % in the series with Podosphaera leucotricha turned out to be 97%.

In the case of `Cc1nn(C)c(F)c1C(=O)Nc1ccccc1-c1ccccc1F` [Example 5], the melting point amounted to 113 °C. Further, the Efficacy in % with Podosphaera leucotricha is on record as 99%.

As for `Cc1ccc(-c2ccccc2NC(=O)c2c(C)nn(C)c2F)cc1Cl` [Example 8], the Efficacy in % stood at 100% with Venturia inaequalis, 100% in the series with Pyrenophora teres and 98% in the series on Podosphaera leucotricha.

With `Cc1nn(C)c(F)c1C(=O)Nc1ccccc1-c1cccc(C(F)(F)F)c1` [Example 9], the melting point amounted to 116 °C. Also, the Efficacy in % in the series with Venturia inaequalis amounted to 97%. This molecule came in with an Efficacy in % in the series on Pyrenophora teres of 100%. In the series with Sphaerotheca fuliginea, this molecule had an Efficacy in % of 94%. The same molecule returned an Efficacy in % in the series with Podosphaera leucotricha of 100%.

Take `Cc1cccc(NC(=O)c2c(C)nn(C)c2F)c1-c1ccccc1` [Example 16]: the melting point amounted to 144 °C. The Efficacy in % in series [1] is reported as 94%.

`Cc1cccc(NC(=O)c2c(C)nn(C)c2F)c1-c1ccc(Cl)cc1` [Example 17] yielded a melting point of 177 °C. Further, in the series with Pyrenophora teres, the Efficacy in % is 100%. The Efficacy in % in series [1] is on record as 100%.

The term melting point denotes the temperature, or range, at which the solid turns liquid.

Values taken from patent US6369093B1, “Pyrazole carboxanilide fungicide” (Bayer Aktiengesellschaft, priority 1998, dated 2002).
